Data: ChEMBL document CHEMBL6114998, “Design, Synthesis, and Pharmacological Evaluation of Quinazoline and Quinoline Derivatives as Potent ENPP1 Inhibitors for Cancer Immunotherapy” (J Med Chem, 2025)
The source made the active and inactive calls. The calls are words filed in the database; no cut-off is given here.

Columns and labels:
[1] = Cmax in Sprague-Dawley rat at 10 mg/kg, iv measured upto 24 hrs by LC-MS/MS analysis; assay type: ADME, organism-based; details: in vivo
[2] = test system: THP-1; experiment: Activation of STING signalling pathway in human THP-1 cells assessed as increase in TBK1 phosphorylation at 300 nM preincubated with compound for 2 hrs followed by cGAMP addition and measured after 3 hrs by Western blot analysis; assay type: cell-based; details: filed as activator, time 5.0 hrs
[3] = target: Voltage-gated inwardly rectifying potassium channel KCNH2 (Homo sapiens, UniProt Q12809); experiment: Inhibition of hERG expressed in CHO cells by QPatch automated patch-clamp assay; assay type: toxicity, cell-based
[4] = target: T1, Ectonucleotide pyrophosphatase/phosphodiesterase family member 1 (Homo sapiens, UniProt P22413); experiment: Inhibition of ENPP1 in human MDA-MB-231 cells using p-NPh-5TMP as substrate at pH 8.5 measured after 60 mins; assay type: cell-based
T1 sequence (P22413 whole entry): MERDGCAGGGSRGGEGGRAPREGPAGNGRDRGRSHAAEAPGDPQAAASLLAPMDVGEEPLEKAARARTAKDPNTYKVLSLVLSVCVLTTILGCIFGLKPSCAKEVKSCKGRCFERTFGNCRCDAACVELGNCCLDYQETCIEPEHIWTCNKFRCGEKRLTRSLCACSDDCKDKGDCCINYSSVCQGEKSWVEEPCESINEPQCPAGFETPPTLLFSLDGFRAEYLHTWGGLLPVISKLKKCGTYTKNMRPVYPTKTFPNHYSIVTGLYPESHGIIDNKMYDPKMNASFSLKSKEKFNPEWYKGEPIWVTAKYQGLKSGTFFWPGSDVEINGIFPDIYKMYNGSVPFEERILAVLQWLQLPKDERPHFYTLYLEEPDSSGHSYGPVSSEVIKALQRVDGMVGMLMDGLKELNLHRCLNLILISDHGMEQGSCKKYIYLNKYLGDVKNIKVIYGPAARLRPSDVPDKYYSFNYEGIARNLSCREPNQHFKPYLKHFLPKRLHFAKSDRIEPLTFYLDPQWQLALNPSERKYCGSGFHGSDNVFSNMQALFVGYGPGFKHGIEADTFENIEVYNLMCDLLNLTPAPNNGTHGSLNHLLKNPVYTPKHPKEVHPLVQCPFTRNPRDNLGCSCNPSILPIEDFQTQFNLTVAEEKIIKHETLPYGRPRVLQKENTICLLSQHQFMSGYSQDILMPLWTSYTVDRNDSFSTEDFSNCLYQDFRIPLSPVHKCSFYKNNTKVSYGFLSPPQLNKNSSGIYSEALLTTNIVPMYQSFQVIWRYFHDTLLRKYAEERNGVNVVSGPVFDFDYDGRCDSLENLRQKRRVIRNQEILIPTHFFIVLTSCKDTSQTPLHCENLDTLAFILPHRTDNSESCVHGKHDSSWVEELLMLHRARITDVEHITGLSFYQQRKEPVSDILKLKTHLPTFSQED

[5] = Clearance in Sprague-Dawley rat at 10 mg/kg, iv measured upto 24 hrs by LC-MS/MS analysis; assay type: ADME, organism-based; details: in vivo
[6] = test system: CT26; experiment: Antitumor activity against mouse CT26 cells allografted in female BALB/c mouse assessed as tumor growth inhibition at 200 mg/kg QD, ip measured every 2 days for 12 days in presence of anti-PD-L1 antibody relative to control; assay type: functional; details: CT26, 288 h, time 12 day, read-out: TGI
[7] = Toxicity in female BALB/c mouse allografted with mouse CT26 cells assessed as change in body weight at 200 mg/kg QD, ip measured every 2 days for 12 days; assay type: organism-based; details: in vivo, 288 h, time 12 day
[8] = test system: CT26; experiment: Antitumor activity against mouse CT26 cells allografted in female BALB/c mouse assessed as increase in M1-type macrophages in tumor tissue at 200 mg/kg QD, ip measured every 2 days for 12 days by immunohistochemical analysis; assay type: functional, organism-based; details: time 12.0 day
[9] = test system: CT26; experiment: Antitumor activity against mouse CT26 cells allografted in female BALB/c mouse assessed as increase in M1-type macrophages in tumor tissue at 200 mg/kg QD, ip in presence of anti-PD-L1 antibody measured every 2 days for 12 days by immunohistochemical analysis; assay type: functional, organism-based; details: time 12.0 day
[10] = test system: CT26; experiment: Antitumor activity against mouse CT26 cells allografted in female BALB/c mouse assessed as decrease in M2-type macrophages in tumor tissue at 200 mg/kg QD, ip measured every 2 days for 12 days by immunohistochemical analysis; assay type: functional, organism-based; details: time 12.0 day
[11] = test system: THP1-Dual; experiment: Activation of STING-mediated immune response in human THP1-Dual cells assessed as increase in cGAMP-induced ISRE activation preincubated in conditioned medium containing 36 hrs compound treated with human MDA-MB-231 cells measured after 24 hrs by quanti-luc luciferase assay; assay type: cell-based; details: filed as activator, time 60.0 hrs
[12] = test system: THP-1; experiment: Activation of STING signalling pathway in human THP-1 cells assessed as increase in IFNB1 expression measured after 18 hrs in presence of cGAMP by qPCR analysis; assay type: cell-based; details: filed as activator, dose 3-1000 nM
[13] = species on record: Homo sapiens; experiment: Inhibition of STE (unknown origin) at 1 uM by KINOMEscan assay
[14] = Inhibition of TK (unknown origin) at 1 uM by KINOMEscan assay; details: Homo sapiens
[15] = test system: CT26; experiment: Antitumor activity against mouse CT26 cells allografted in female BALB/c mouse assessed as increase in M1-type macrophages in tumor tissue at 200 mg/kg QD, ip measured every 2 days for 12 days by immunofluorescence analysis; assay type: functional, organism-based; details: time 12.0 day
[16] = test system: CT26; experiment: Antitumor activity against mouse CT26 cells allografted in female BALB/c mouse assessed as decrease in M2-type macrophages in tumor tissue at 200 mg/kg QD, ip measured every 2 days for 12 days by immunofluorescence analysis; assay type: functional, organism-based; details: time 12.0 day
[17] = test system: CT26; experiment: Antitumor activity against mouse CT26 cells allografted in female BALB/c mouse assessed as decrease in M2-type macrophages in tumor tissue at 200 mg/kg QD, ip in presence of anti-PD-L1 antibody measured every 2 days for 12 days by immunofluorescence analysis; assay type: functional, organism-based; details: time 12.0 day

Chain of Voltage-gated inwardly rectifying potassium channel KCNH2 (Q12809 whole entry): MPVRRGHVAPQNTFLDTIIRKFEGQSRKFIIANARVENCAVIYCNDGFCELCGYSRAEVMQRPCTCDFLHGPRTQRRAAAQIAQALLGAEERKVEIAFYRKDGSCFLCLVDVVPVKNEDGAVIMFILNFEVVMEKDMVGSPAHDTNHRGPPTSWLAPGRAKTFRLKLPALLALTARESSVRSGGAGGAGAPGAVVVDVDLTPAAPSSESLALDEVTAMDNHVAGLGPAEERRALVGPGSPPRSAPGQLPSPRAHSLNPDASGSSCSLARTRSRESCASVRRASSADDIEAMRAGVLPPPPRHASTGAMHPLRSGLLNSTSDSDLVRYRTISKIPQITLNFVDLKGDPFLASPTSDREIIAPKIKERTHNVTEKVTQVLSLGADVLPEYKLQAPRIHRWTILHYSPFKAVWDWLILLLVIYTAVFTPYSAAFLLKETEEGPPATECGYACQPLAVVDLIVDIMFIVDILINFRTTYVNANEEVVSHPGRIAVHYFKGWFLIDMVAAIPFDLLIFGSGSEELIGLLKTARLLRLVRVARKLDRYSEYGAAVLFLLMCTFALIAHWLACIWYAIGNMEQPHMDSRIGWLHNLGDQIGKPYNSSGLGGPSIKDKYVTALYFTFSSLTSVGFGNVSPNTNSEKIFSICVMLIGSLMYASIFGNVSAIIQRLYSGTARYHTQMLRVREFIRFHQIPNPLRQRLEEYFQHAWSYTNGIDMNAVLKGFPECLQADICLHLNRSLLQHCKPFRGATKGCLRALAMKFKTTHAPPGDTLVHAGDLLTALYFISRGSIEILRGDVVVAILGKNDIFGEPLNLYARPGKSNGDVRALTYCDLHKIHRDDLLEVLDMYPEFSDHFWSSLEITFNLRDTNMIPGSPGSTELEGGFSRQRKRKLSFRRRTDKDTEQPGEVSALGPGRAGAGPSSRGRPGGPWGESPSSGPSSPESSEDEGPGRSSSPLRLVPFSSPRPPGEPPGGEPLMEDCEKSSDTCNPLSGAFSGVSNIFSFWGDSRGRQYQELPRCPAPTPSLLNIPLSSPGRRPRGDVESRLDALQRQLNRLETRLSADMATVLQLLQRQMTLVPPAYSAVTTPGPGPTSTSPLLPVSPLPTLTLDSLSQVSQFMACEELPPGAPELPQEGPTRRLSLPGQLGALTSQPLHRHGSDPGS

Cmax [1]: 3220 ng/mL
IC50 [4]: 42 nM
clearance [5]: 84.5 mL/min/kg
inhibition [13]: inactive
inhibition [14]: inactive
SMILES: COc1cccc2c(N3CCC(O)(CNS(N)(=O)=O)CC3)ncnc12
Activity [2]: Active
IC50 [3]: > 40000 nM
inhibition in vivo at 200 mg/kg [6]: 64.6%
Activity [7]: Non-toxic
Activity [8]: Active
Activity [9]: Active
Activity [10]: Active
Activity [11]: Dose-dependent-effect
Activity [12]: Dose-dependent-effect
Activity [15]: Active
Activity [16]: Active
Activity [17]: Active
